Laboratory results reported in patent US11117930B2, “Peptide inhibitors of transcription factor aggregation” (ADRX, INC., priority 2017, dated 2021).
Non-standard residues stand in square brackets, D forms with d. Residues, ends and D or L forms follow the SMILES beside them. No end group written: not given here.

Columns and labels:
Detroit-562 = type: cell-based; details: 24 h
Protocol: (§1) To render the inhibitors cell permeable, the peptides are fused to either a nine-residue poly L-Arg tag or a nine-residue poly D-Arg tag, through one of several three-residue linkers, either L-RPI, D-RPI, or D-GGG. Cancer cell lines, e.g. OVCAR-3, and Detroit 562 are treated with the peptide conjugates for 24 hours by the following method. OVCAR3 and Detroit-562 cells are grown in ATCC recommended growth media. The peptides were made in a 4 mM stock. Cells are plated in 96-well flat bottom clear plates at 7000 cells/well. After 24 hours, compounds are serially diluted in one-third [starting at 33 μM] or one-half [starting at 30 μM] dilutions in PrEGM media (Lonza). Growth media was removed from the wells and compound in PrEGM was added to 100 ul final volume. 24 hours post-compound addition cell metabolism was measured by addition of 20 μl MTS solution (Promega, cell-titer 96 aqueous). Absorbance was read at 490 nm following a 2 hour incubation and data was processed in Prism Graphpad to generate EC50 values.

OVCAR3 = type: cell-based; details: 24 h
Protocol: as §1

[1] = Protein binding in human serum; type: in vitro ADME; details: CPP linked peptides
Stability in human serum = type: in vitro ADME; details: CPP linked peptides, read-out: Stability in Human Serum (t1/2)

| Molecule | EC50 (Detroit-562) | EC50 (OVCAR3) | fraction unbound [1] | half-life (Stability in human serum) |
| --- | --- | --- | --- | --- |
| CC[C@H](C)[C@H](NC(=O)[C@@H]1CCCN1C(=O)[C@H](CCCNC(=N)N)NC(=O)[C@H](CCCNC(=N)N)NC(=O)[C@H](CCCNC(=N)N)NC(=O)[C@H](CCCNC(=N)N)NC(=O)[C@H](CCCNC(=N)N)NC(=O)[C@H](CCCNC(=N)N)NC(=O)[C@H](CCCNC(=N)N)NC(=O)[C@H](CCCNC(=N)N)NC(=O)[C@H](CCCNC(=N)N)NC(=O)[C@@H](N)CCCNC(=N)N)C(=O)N[C@H](CCCCN)C(=O)N[C@H](Cc1ccccc1)C(=O)N[C@H](CCCNC(=N)N)C(=O)N[C@H](Cc1ccccc1)C(=O)N[C@H](Cc1ccc(O)cc1)C(=O)N[C@H](Cc1c[nH]cn1)C(=O)N[C@H](CCCNC(=N)N)C(=O)O [RRRRRRRRRRPIkfrfyhr] (H-RRRRRRRRRRPI[dK][dF][dR][dF][dY][dH][dR]-OH; N-terminus and C-terminus assumed) | 15 µM | 11 µM | 0.19 | 4.42 h |
| CC[C@H](C)[C@H](NC(=O)[C@@H]1CCCN1C(=O)[C@H](CCCNC(=N)N)NC(=O)[C@H](CCCNC(=N)N)NC(=O)[C@H](CCCNC(=N)N)NC(=O)[C@H](CCCNC(=N)N)NC(=O)[C@H](CCCNC(=N)N)NC(=O)[C@H](CCCNC(=N)N)NC(=O)[C@H](CCCNC(=N)N)NC(=O)[C@H](CCCNC(=N)N)NC(=O)[C@H](CCCNC(=N)N)NC(=O)[C@@H](N)CCCNC(=N)N)C(=O)N[C@H](CCC(N)=O)C(=O)N[C@H](CCC(N)=O)C(=O)N[C@H](CCCNC(=N)N)C(=O)N[C@H](Cc1ccc(O)cc1)C(=O)N[C@H](Cc1ccc(O)cc1)C(=O)N[C@H](Cc1c[nH]c2ccccc12)C(=O)N[C@H](CCCNC(=N)N)C(=O)O [RRRRRRRRRRPIqqryywr] (H-RRRRRRRRRRPI[dQ][dQ][dR][dY][dY][dW][dR]-OH; N-terminus and C-terminus assumed) | 12 µM | 22 µM | 0.18 | 10 h |
| CC[C@H](C)[C@H](NC(=O)[C@@H]1CCCN1C(=O)[C@H](CCCNC(=N)N)NC(=O)[C@H](CCCNC(=N)N)NC(=O)[C@H](CCCNC(=N)N)NC(=O)[C@H](CCCNC(=N)N)NC(=O)[C@H](CCCNC(=N)N)NC(=O)[C@H](CCCNC(=N)N)NC(=O)[C@H](CCCNC(=N)N)NC(=O)[C@H](CCCNC(=N)N)NC(=O)[C@H](CCCNC(=N)N)NC(=O)[C@@H](N)CCCNC(=N)N)C(=O)N[C@H](CCCNC(=N)N)C(=O)N[C@H](Cc1ccccc1)C(=O)N[C@H](Cc1ccc(O)cc1)C(=O)N[C@H](Cc1ccc(O)cc1)C(=O)N[C@H](Cc1c[nH]cn1)C(=O)N[C@H](CCCNC(=N)N)C(=O)N[C@H](CCCNC(=N)N)C(=O)O [RRRRRRRRRRPIrfyyhrr] (H-RRRRRRRRRRPI[dR][dF][dY][dY][dH][dR][dR]-OH; N-terminus and C-terminus assumed) | 9 µM | 16 µM | 0.09 | 0.95 h |
| CC[C@H](C)[C@H](NC(=O)[C@@H]1CCCN1C(=O)[C@H](CCCNC(=N)N)NC(=O)[C@H](CCCNC(=N)N)NC(=O)[C@H](CCCNC(=N)N)NC(=O)[C@H](CCCNC(=N)N)NC(=O)[C@H](CCCNC(=N)N)NC(=O)[C@H](CCCNC(=N)N)NC(=O)[C@H](CCCNC(=N)N)NC(=O)[C@H](CCCNC(=N)N)NC(=O)[C@H](CCCNC(=N)N)NC(=O)[C@@H](N)CCCNC(=N)N)C(=O)N[C@H](Cc1ccc(O)cc1)C(=O)N[C@H](CCC(N)=O)C(=O)N[C@H](Cc1c[nH]c2ccccc12)C(=O)N[C@H](Cc1ccc(O)cc1)C(=O)N[C@H](CCCNC(=N)N)C(=O)N[C@H](Cc1c[nH]c2ccccc12)C(=O)N[C@H](CCC(N)=O)C(=O)O [RRRRRRRRRRPIyqwyrwq] (H-RRRRRRRRRRPI[dY][dQ][dW][dY][dR][dW][dQ]-OH; N-terminus and C-terminus assumed) | 13 µM | 10 µM | 0.02 | 0.833 h |
| PRRRRRRRRRRPIWTIKLWHP | 6 µM | 4 µM |  |  |
